According to patent EP2982983B1, “METHOD FOR DRUG SUSCEPTIBILITY TESTING OF MYCOBACTERIUM TUBERCULOSIS BY ELECTRON PARAMAGNETIC RESONANCE” (priority 2014, dated 2016):

Assays:
[1] = species not given; cited from earlier work
[2] = system: M. tuberculosis H37Rv (ATCC 27294); format: cell-based, Mycobacterium tuberculosis; conditions: one day (24 h) exposure to the Cmax of the drug (rifampicin 8 µg/ml, moxifloxacin 4 µg/ml, amikacin 8 µg/ml), compared with control without drug

SMILES	Cmax value (maximum drug concentration in serum) [1]	rate of CP^• formation [2]
CO[C@H]1/C=C/O[C@@]2(C)Oc3c(C)c(O)c4c(O)c(c(/C=N/N5CCN(C)CC5)c(O)c4c3C2=O)NC(=O)/C(C)=C\C=C\[C@H](C)[C@H](O)[C@@H](C)[C@@H](O)[C@@H](C)[C@H](OC(C)=O)[C@@H]1C [rifampicin]	8000 ng/mL	–
COc1c(N2C[C@@H]3CCCN[C@@H]3C2)c(F)cc2c(=O)c(C(=O)O)cn(C3CC3)c12 [moxifloxacin]	4000 ng/mL	–
NCC[C@H](O)C(=O)N[C@@H]1C[C@H](N)[C@@H](O[C@H]2O[C@H](CN)[C@@H](O)[C@H](O)[C@H]2O)[C@H](O)[C@H]1O[C@H]1O[C@H](CO)[C@@H](O)[C@H](N)[C@H]1O [amikacin]	8000 ng/mL	quite high rate
